Measured values: PubChem BioAssay (NCI)
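Cultured in 96-well plates, cells were exposed to test compound for 48 hours across five concentrations. The concentration for 50% growth inhibition is given as GI50. TGI: total growth inhibition.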

Each molecule was assayed on 786-0 renal (assay: NCI tumour cell line growth inhibition, 48 h).

Going from Cc1ccc2c(-c3ccnc(Nc4ccc5c(c4)OCCO5)n3)c(-c3ccc(C(F)(F)F)cc3)nn2n1 to CN(C)CCCC1(c2ccc(F)cc2)OCc2cc(-c3cccc4[nH]ccc34)ccc21 (stereo unspecified), the GI50 falls from over 21.3 µM to 1.63 µM.

Nc1nc2c(c3cnccc13)C(c1ccc(Cl)c(Cl)c1)Cc1cnccc1-2 (stereo unspecified) showed a GI50 of 0.565 µM.

Going from Cc1ccc2c(-c3ccnc(Nc4ccc5c(c4)OCCO5)n3)c(-c3ccc(C(F)(F)F)cc3)nn2n1 to CN(C)CCCC1(c2ccc(F)cc2)OCc2cc(-c3cccc4[nH]ccc34)ccc21 (stereo unspecified), the TGI falls from over 25 µM to 3.24 µM.

Work on Nc1nc2c(c3cnccc13)C(c1ccc(Cl)c(Cl)c1)Cc1cnccc1-2 (stereo unspecified) yielded a TGI of 3.9 µM.

The molecules below were run on A498 renal (assay: NCI tumour cell line growth inhibition, 48 h).

Cc1ccc2c(-c3ccnc(Nc4ccc5c(c4)OCCO5)n3)c(-c3ccc(C(F)(F)F)cc3)nn2n1 and CN(C)CCCC1(c2ccc(F)cc2)OCc2cc(-c3cccc4[nH]ccc34)ccc21 (stereo unspecified) are within 1.5-fold of each other in GI50: 2.13 µM for the first, 1.56 µM for the second.

In the case of Nc1nc2c(c3cnccc13)C(c1ccc(Cl)c(Cl)c1)Cc1cnccc1-2 (stereo unspecified), the GI50 is reported as 0.227 µM.

Compared with Cc1ccc2c(-c3ccnc(Nc4ccc5c(c4)OCCO5)n3)c(-c3ccc(C(F)(F)F)cc3)nn2n1, CN(C)CCCC1(c2ccc(F)cc2)OCc2cc(-c3cccc4[nH]ccc34)ccc21 (stereo unspecified) is 6.1-fold lower in TGI: 18 µM for the first, 2.96 µM for the second.

With Nc1nc2c(c3cnccc13)C(c1ccc(Cl)c(Cl)c1)Cc1cnccc1-2 (stereo unspecified) the TGI was 1.01 µM.

These molecules were tested on A549 NSCLC (assay: NCI tumour cell line growth inhibition, 48 h).

Going from Cc1ccc2c(-c3ccnc(Nc4ccc5c(c4)OCCO5)n3)c(-c3ccc(C(F)(F)F)cc3)nn2n1 to CN(C)CCCC1(c2ccc(F)cc2)OCc2cc(-c3cccc4[nH]ccc34)ccc21 (stereo unspecified), the GI50 falls from 13.3 µM to 1.6 µM (8.3-fold).

Nc1nc2c(c3cnccc13)C(c1ccc(Cl)c(Cl)c1)Cc1cnccc1-2 (stereo unspecified) gave a GI50 of 0.665 µM.

Going from Cc1ccc2c(-c3ccnc(Nc4ccc5c(c4)OCCO5)n3)c(-c3ccc(C(F)(F)F)cc3)nn2n1 to CN(C)CCCC1(c2ccc(F)cc2)OCc2cc(-c3cccc4[nH]ccc34)ccc21 (stereo unspecified), the TGI falls from over 25 µM to 3.07 µM.

In the case of Nc1nc2c(c3cnccc13)C(c1ccc(Cl)c(Cl)c1)Cc1cnccc1-2 (stereo unspecified), the TGI is reported as 4.84 µM.

These molecules were tested on ACHN renal (assay: NCI tumour cell line growth inhibition, 48 h).

Compared with Cc1ccc2c(-c3ccnc(Nc4ccc5c(c4)OCCO5)n3)c(-c3ccc(C(F)(F)F)cc3)nn2n1, CN(C)CCCC1(c2ccc(F)cc2)OCc2cc(-c3cccc4[nH]ccc34)ccc21 (stereo unspecified) is 9.8-fold lower in GI50: 16.5 µM for the first, 1.68 µM for the second.

Nc1nc2c(c3cnccc13)C(c1ccc(Cl)c(Cl)c1)Cc1cnccc1-2 (stereo unspecified) showed a GI50 of 0.807 µM.

Going from Cc1ccc2c(-c3ccnc(Nc4ccc5c(c4)OCCO5)n3)c(-c3ccc(C(F)(F)F)cc3)nn2n1 to CN(C)CCCC1(c2ccc(F)cc2)OCc2cc(-c3cccc4[nH]ccc34)ccc21 (stereo unspecified), the TGI falls from over 25 µM to 3.04 µM.

Nc1nc2c(c3cnccc13)C(c1ccc(Cl)c(Cl)c1)Cc1cnccc1-2 (stereo unspecified) gave a TGI of 4.04 µM.

These molecules were tested on BT-549 breast (assay: NCI tumour cell line growth inhibition, 48 h).

Going from Cc1ccc2c(-c3ccnc(Nc4ccc5c(c4)OCCO5)n3)c(-c3ccc(C(F)(F)F)cc3)nn2n1 to CN(C)CCCC1(c2ccc(F)cc2)OCc2cc(-c3cccc4[nH]ccc34)ccc21 (stereo unspecified), the GI50 falls from 4.45 µM to 1.87 µM (2.4-fold).

For Nc1nc2c(c3cnccc13)C(c1ccc(Cl)c(Cl)c1)Cc1cnccc1-2 (stereo unspecified), the GI50 was 0.57 µM.

First: Cc1ccc2c(-c3ccnc(Nc4ccc5c(c4)OCCO5)n3)c(-c3ccc(C(F)(F)F)cc3)nn2n1
Second: CN(C)CCCC1(c2ccc(F)cc2)OCc2cc(-c3cccc4[nH]ccc34)ccc21 (stereo unspecified)
The TGI of the first is higher: over 25 µM for the first, 3.54 µM for the second.

Nc1nc2c(c3cnccc13)C(c1ccc(Cl)c(Cl)c1)Cc1cnccc1-2 (stereo unspecified) was tested, and the TGI was 7.3 µM.

The molecules below were run on CAKI-1 renal (assay: NCI tumour cell line growth inhibition, 48 h).

Cc1ccc2c(-c3ccnc(Nc4ccc5c(c4)OCCO5)n3)c(-c3ccc(C(F)(F)F)cc3)nn2n1 and CN(C)CCCC1(c2ccc(F)cc2)OCc2cc(-c3cccc4[nH]ccc34)ccc21 (stereo unspecified) are within 1.5-fold of each other in GI50: 1.42 µM for the first, 1.41 µM for the second.

In the case of Nc1nc2c(c3cnccc13)C(c1ccc(Cl)c(Cl)c1)Cc1cnccc1-2 (stereo unspecified), the GI50 is reported as 0.658 µM.

First: Cc1ccc2c(-c3ccnc(Nc4ccc5c(c4)OCCO5)n3)c(-c3ccc(C(F)(F)F)cc3)nn2n1
Second: CN(C)CCCC1(c2ccc(F)cc2)OCc2cc(-c3cccc4[nH]ccc34)ccc21 (stereo unspecified)
The TGI of the first is higher: over 25 µM for the first, 2.77 µM for the second.

Nc1nc2c(c3cnccc13)C(c1ccc(Cl)c(Cl)c1)Cc1cnccc1-2 (stereo unspecified) showed a TGI of 13.4 µM.

Each molecule was assayed on CCRF-CEM leukemia (assay: NCI tumour cell line growth inhibition, 48 h).

Compared with Cc1ccc2c(-c3ccnc(Nc4ccc5c(c4)OCCO5)n3)c(-c3ccc(C(F)(F)F)cc3)nn2n1, CN(C)CCCC1(c2ccc(F)cc2)OCc2cc(-c3cccc4[nH]ccc34)ccc21 (stereo unspecified) is 7.1-fold lower in GI50: 11.7 µM for the first, 1.65 µM for the second.

For Nc1nc2c(c3cnccc13)C(c1ccc(Cl)c(Cl)c1)Cc1cnccc1-2 (stereo unspecified), the GI50 was 0.388 µM.

First: Cc1ccc2c(-c3ccnc(Nc4ccc5c(c4)OCCO5)n3)c(-c3ccc(C(F)(F)F)cc3)nn2n1
Second: CN(C)CCCC1(c2ccc(F)cc2)OCc2cc(-c3cccc4[nH]ccc34)ccc21 (stereo unspecified)
The TGI of the first is higher: over 25 µM for the first, 3.95 µM for the second.

Nc1nc2c(c3cnccc13)C(c1ccc(Cl)c(Cl)c1)Cc1cnccc1-2 (stereo unspecified) was tested, and the TGI was 12.6 µM.

These molecules were tested on COLO 205 colon (assay: NCI tumour cell line growth inhibition, 48 h).

Going from Cc1ccc2c(-c3ccnc(Nc4ccc5c(c4)OCCO5)n3)c(-c3ccc(C(F)(F)F)cc3)nn2n1 to CN(C)CCCC1(c2ccc(F)cc2)OCc2cc(-c3cccc4[nH]ccc34)ccc21 (stereo unspecified), the GI50 falls from 3.17 µM to 1.47 µM (2.2-fold).

For Nc1nc2c(c3cnccc13)C(c1ccc(Cl)c(Cl)c1)Cc1cnccc1-2 (stereo unspecified), the GI50 was 0.356 µM.

Going from Cc1ccc2c(-c3ccnc(Nc4ccc5c(c4)OCCO5)n3)c(-c3ccc(C(F)(F)F)cc3)nn2n1 to CN(C)CCCC1(c2ccc(F)cc2)OCc2cc(-c3cccc4[nH]ccc34)ccc21 (stereo unspecified), the TGI falls from over 25 µM to 2.88 µM.

Nc1nc2c(c3cnccc13)C(c1ccc(Cl)c(Cl)c1)Cc1cnccc1-2 (stereo unspecified) was tested, and the TGI was 1.09 µM.

What follows are molecules tested on DU-145 prostate (assay: NCI tumour cell line growth inhibition, 48 h).

Going from Cc1ccc2c(-c3ccnc(Nc4ccc5c(c4)OCCO5)n3)c(-c3ccc(C(F)(F)F)cc3)nn2n1 to CN(C)CCCC1(c2ccc(F)cc2)OCc2cc(-c3cccc4[nH]ccc34)ccc21 (stereo unspecified), the GI50 falls from over 20.6 µM to 1.77 µM.

Work on Nc1nc2c(c3cnccc13)C(c1ccc(Cl)c(Cl)c1)Cc1cnccc1-2 (stereo unspecified) yielded a GI50 of 0.615 µM.

Going from Cc1ccc2c(-c3ccnc(Nc4ccc5c(c4)OCCO5)n3)c(-c3ccc(C(F)(F)F)cc3)nn2n1 to CN(C)CCCC1(c2ccc(F)cc2)OCc2cc(-c3cccc4[nH]ccc34)ccc21 (stereo unspecified), the TGI falls from over 25 µM to 3.23 µM.

For Nc1nc2c(c3cnccc13)C(c1ccc(Cl)c(Cl)c1)Cc1cnccc1-2 (stereo unspecified), the TGI was 11.2 µM.

The molecules below were run on EKVX NSCLC (assay: NCI tumour cell line growth inhibition, 48 h).

First: Cc1ccc2c(-c3ccnc(Nc4ccc5c(c4)OCCO5)n3)c(-c3ccc(C(F)(F)F)cc3)nn2n1
Second: CN(C)CCCC1(c2ccc(F)cc2)OCc2cc(-c3cccc4[nH]ccc34)ccc21 (stereo unspecified)
The GI50 of the first is 2.7-fold higher: 4.72 µM for the first, 1.78 µM for the second.

Nc1nc2c(c3cnccc13)C(c1ccc(Cl)c(Cl)c1)Cc1cnccc1-2 (stereo unspecified) gave a GI50 of 0.971 µM.

Compared with Cc1ccc2c(-c3ccnc(Nc4ccc5c(c4)OCCO5)n3)c(-c3ccc(C(F)(F)F)cc3)nn2n1, CN(C)CCCC1(c2ccc(F)cc2)OCc2cc(-c3cccc4[nH]ccc34)ccc21 (stereo unspecified) is lower in TGI: over 25 µM for the first, 3.3 µM for the second.

For Nc1nc2c(c3cnccc13)C(c1ccc(Cl)c(Cl)c1)Cc1cnccc1-2 (stereo unspecified), the TGI was 17.5 µM.

The molecules below were run on HCC-2998 colon (assay: NCI tumour cell line growth inhibition, 48 h).

Going from Cc1ccc2c(-c3ccnc(Nc4ccc5c(c4)OCCO5)n3)c(-c3ccc(C(F)(F)F)cc3)nn2n1 to CN(C)CCCC1(c2ccc(F)cc2)OCc2cc(-c3cccc4[nH]ccc34)ccc21 (stereo unspecified), the GI50 falls from 12.3 µM to 1.54 µM (8-fold).

Work on Nc1nc2c(c3cnccc13)C(c1ccc(Cl)c(Cl)c1)Cc1cnccc1-2 (stereo unspecified) yielded a GI50 of 1.65 µM.

Compared with Cc1ccc2c(-c3ccnc(Nc4ccc5c(c4)OCCO5)n3)c(-c3ccc(C(F)(F)F)cc3)nn2n1, CN(C)CCCC1(c2ccc(F)cc2)OCc2cc(-c3cccc4[nH]ccc34)ccc21 (stereo unspecified) is lower in TGI: over 25 µM for the first, 2.94 µM for the second.

With Nc1nc2c(c3cnccc13)C(c1ccc(Cl)c(Cl)c1)Cc1cnccc1-2 (stereo unspecified) the TGI was 7.37 µM.

What follows are molecules tested on HCT-116 colon (assay: NCI tumour cell line growth inhibition, 48 h).

Going from Cc1ccc2c(-c3ccnc(Nc4ccc5c(c4)OCCO5)n3)c(-c3ccc(C(F)(F)F)cc3)nn2n1 to CN(C)CCCC1(c2ccc(F)cc2)OCc2cc(-c3cccc4[nH]ccc34)ccc21 (stereo unspecified), the GI50 falls from 7.32 µM to 1.37 µM (5.3-fold).

For Nc1nc2c(c3cnccc13)C(c1ccc(Cl)c(Cl)c1)Cc1cnccc1-2 (stereo unspecified), the GI50 was 0.432 µM.

Compared with Cc1ccc2c(-c3ccnc(Nc4ccc5c(c4)OCCO5)n3)c(-c3ccc(C(F)(F)F)cc3)nn2n1, CN(C)CCCC1(c2ccc(F)cc2)OCc2cc(-c3cccc4[nH]ccc34)ccc21 (stereo unspecified) is lower in TGI: over 25 µM for the first, 2.82 µM for the second.

In the case of Nc1nc2c(c3cnccc13)C(c1ccc(Cl)c(Cl)c1)Cc1cnccc1-2 (stereo unspecified), the TGI is reported as 11.2 µM.

These molecules were tested on HCT-15 colon (assay: NCI tumour cell line growth inhibition, 48 h).

First: Cc1ccc2c(-c3ccnc(Nc4ccc5c(c4)OCCO5)n3)c(-c3ccc(C(F)(F)F)cc3)nn2n1
Second: CN(C)CCCC1(c2ccc(F)cc2)OCc2cc(-c3cccc4[nH]ccc34)ccc21 (stereo unspecified)
The GI50 of the first is 4.7-fold higher: 8.69 µM for the first, 1.83 µM for the second.

Nc1nc2c(c3cnccc13)C(c1ccc(Cl)c(Cl)c1)Cc1cnccc1-2 (stereo unspecified) showed a GI50 of 0.409 µM.

Going from Cc1ccc2c(-c3ccnc(Nc4ccc5c(c4)OCCO5)n3)c(-c3ccc(C(F)(F)F)cc3)nn2n1 to CN(C)CCCC1(c2ccc(F)cc2)OCc2cc(-c3cccc4[nH]ccc34)ccc21 (stereo unspecified), the TGI falls from over 25 µM to 3.42 µM.

Nc1nc2c(c3cnccc13)C(c1ccc(Cl)c(Cl)c1)Cc1cnccc1-2 (stereo unspecified) was tested, and the TGI was 11.1 µM.

These molecules were tested on HL-60(TB) leukemia (assay: NCI tumour cell line growth inhibition, 48 h).

Going from Cc1ccc2c(-c3ccnc(Nc4ccc5c(c4)OCCO5)n3)c(-c3ccc(C(F)(F)F)cc3)nn2n1 to CN(C)CCCC1(c2ccc(F)cc2)OCc2cc(-c3cccc4[nH]ccc34)ccc21 (stereo unspecified), the GI50 falls from 6.81 µM to 1.81 µM (3.8-fold).

Nc1nc2c(c3cnccc13)C(c1ccc(Cl)c(Cl)c1)Cc1cnccc1-2 (stereo unspecified) was tested, and the GI50 was 0.384 µM.

Compared with Cc1ccc2c(-c3ccnc(Nc4ccc5c(c4)OCCO5)n3)c(-c3ccc(C(F)(F)F)cc3)nn2n1, CN(C)CCCC1(c2ccc(F)cc2)OCc2cc(-c3cccc4[nH]ccc34)ccc21 (stereo unspecified) is 5.4-fold lower in TGI: 19.4 µM for the first, 3.59 µM for the second.

In the case of Nc1nc2c(c3cnccc13)C(c1ccc(Cl)c(Cl)c1)Cc1cnccc1-2 (stereo unspecified), the TGI is reported as 2.34 µM.

These molecules were tested on HOP-62 NSCLC (assay: NCI tumour cell line growth inhibition, 48 h).

For Cc1ccc2c(-c3ccnc(Nc4ccc5c(c4)OCCO5)n3)c(-c3ccc(C(F)(F)F)cc3)nn2n1, the GI50 was 24.8 µM.

With Cc1ccc2c(-c3ccnc(Nc4ccc5c(c4)OCCO5)n3)c(-c3ccc(C(F)(F)F)cc3)nn2n1 the TGI was over 25 µM.
